US10745388B2, “Indazole compounds and uses thereof” (Incyte Corporation, priority 2018, dated 2020)

These molecules were tested against HPK1 (Homo sapiens (Human), UniProt Q92918) (assay: HPK1 Kinase Binding Assay). Conditions: LanthaScreen tracer 222 binding, active HPK1, one hour incubation at 25° C.
Protocol: A stock solution of 1 mM test compound was prepared in DMSO. The compound plate was prepared by 3-fold and 11-point serial dilutions. 0.1 μL of the compound in DMSO was transferred from the compound plate to the white 384 well polystyrene plates. The assay buffer contained 50 mM HEPES, pH 7.5, 0.01% Tween-20, 5 mM MgCl2, 0.01% BSA, and 5 mM DTT. 5 μL of 4 nM active HPK1 (SignalChem M23-11G) prepared in the buffer was added to the plate. The enzyme concentration given was based on the given stock concentration reported by the vender. 5 μL of 18 nM tracer 222 (ThermoFisher PV6121) and 4 nM LanthaScreen Eu-Anti GST antibody (ThermoFisher PV5595) were added. After one hour incubation at 25° C., the plates were read on a PHERAstar FS plate reader (BMG Labtech). Ki values were determined.

HPK1, sequence (Q92918 1-346 limits assumed): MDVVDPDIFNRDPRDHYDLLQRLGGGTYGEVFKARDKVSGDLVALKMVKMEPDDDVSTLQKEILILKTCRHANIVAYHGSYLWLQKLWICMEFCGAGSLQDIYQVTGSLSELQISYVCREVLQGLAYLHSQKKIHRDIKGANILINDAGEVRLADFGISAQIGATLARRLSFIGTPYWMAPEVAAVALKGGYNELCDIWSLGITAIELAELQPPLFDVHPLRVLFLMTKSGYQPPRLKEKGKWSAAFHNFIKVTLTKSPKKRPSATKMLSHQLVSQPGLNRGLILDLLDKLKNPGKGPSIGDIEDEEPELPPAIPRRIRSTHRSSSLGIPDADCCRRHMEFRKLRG

Ki	SMILES
≤ 100 nM	COc1cccc(F)c1-c1nccc(C(=O)Nc2ccc3nn(C)cc3c2N(C)CCO)n1 [1, Peak 1]
≤ 100 nM	COc1cccc(F)c1-c1nccc(C(=O)Nc2ccc3c(cnn3C)c2N(C)C2CC2)n1 [Example 3, N-(4-(Cyclopropyl(methyl)amino)-1-methyl-1H-indazol-5-yl)-2-(2-fluoro-6-methoxyphenyl)pyrimidine-4-carboxamide]
≤ 100 nM	COc1cccc(F)c1-c1nccc(C(=O)Nc2ccc3c(cnn3C)c2N(C)C)n1 [Example 4, N-(4-(Dimethylamino)-1-methyl-1H-indazol-5-yl)-2-(2-fluoro-6-methoxyphenyl)pyrimidine-4-carboxamide]
≤ 100 nM	COc1cccc(F)c1-c1nccc(C(=O)Nc2ccc3c(cnn3C)c2N(C)Cc2ccccc2)n1 [Example 5, N-(4-(Benzyl(methyl)amino)-1-methyl-1H-indazol-5-yl)-2-(2-fluoro-6-methoxyphenyl)pyrimidine-4-carboxamide]
≤ 100 nM	COc1cccc(F)c1-c1nccc(C(=O)Nc2ccc3c(cnn3C)c2N(C)Cc2cccnc2)n1 [Example 6, 2-(2-Fluoro-6-methoxyphenyl)-N-(1-methyl-4-(methyl(pyridin-3-ylmethyl)amino)-1H-indazol-5-yl)pyrimidine-4-carboxamide]
≤ 100 nM	COc1cccc(F)c1-c1nccc(C(=O)Nc2ccc3c(cnn3C)c2N(C)C2CCOCC2)n1 [Example 7]
≤ 100 nM	COc1cccc(F)c1-c1nccc(C(=O)Nc2ccc3c(cnn3C)c2N(C)CC(C)(C)O)n1 [Example 8, 2-(2-Fluoro-6-methoxyphenyl)-N-(4-((2-hydroxy-2-methylpropyl)(methyl)amino)-1-methyl-1H-indazol-5-yl)pyrimidine-4-carboxamide]
≤ 100 nM	COc1cccc(F)c1-c1nccc(C(=O)Nc2ccc3c(cnn3C)c2N(C)CC2CCCO2)n1 (stereo not drawn) [Example 9, 2-(2-Fluoro-6-methoxyphenyl)-N-(1-methyl-4-(methyl((tetrahydrofuran-2-yl)methyl)amino)-1H-indazol-5-yl)pyrimidine-4-carboxamide]
500 to 5000 nM	COc1cccc(F)c1-c1nccc(C(=O)Nc2ccc3c(cnn3C)c2N(C)CC2(O)COC2)n1 [Example 10, 2-(2-Fluoro-6-methoxyphenyl)-N-(4-(((3-hydroxyoxetan-3-yl)methyl)(methyl)amino)-1-methyl-1H-indazol-5-yl)pyrimidine-4-carboxamide]
≤ 100 nM	COc1cccc(F)c1-c1nccc(C(=O)Nc2ccc3c(cnn3C)c2N(C)[C@H]2CCNC2)n1 [Example 11, (S)-2-(2-Fluoro-6-methoxyphenyl)-N-(1-methyl-4-(methyl(pyrrolidin-3-yl)amino)-1H-indazol-5-yl)pyrimidine-4-carboxamide]
≤ 100 nM	COc1cccc(F)c1-c1nccc(C(=O)Nc2ccc3c(cnn3C)c2N(C)[C@H]2CCN(C(C)=O)C2)n1 [Example 12, (S)—N-(4-((1-acetylpyrrolidin-3-yl)(methyl)amino)-1-methyl-1H-indazol-5-yl)-2-(2-fluoro-6-methoxyphenyl)pyrimidine-4-carboxamide]
≤ 100 nM	COc1cccc(F)c1-c1nccc(C(=O)Nc2ccc3c(cnn3C)c2N(C)[C@H]2CCN(S(C)(=O)=O)C2)n1 [Example 13, (S)-2-(2-Fluoro-6-methoxyphenyl)-N-(1-methyl-4-(methyl(1-(methylsulfonyl)pyrrolidin-3-yl)amino)-1H-indazol-5-yl)pyrimidine-4-carboxamide]
≤ 100 nM	COc1cccc(F)c1-c1nccc(C(=O)Nc2ccc3c(cnn3C)c2N(C)[C@H]2CCN(C(=O)N(C)C)C2)n1 [Example 14, (S)—N-(4-((1-(Dimethylcarbamoyl)pyrrolidin-3-yl)(methyl)amino)-1-methyl-1H-indazol-5-yl)-2-(2-fluoro-6-methoxyphenyl)pyrimidine-4-carboxamide]
≤ 100 nM	CNCc1ccccc1-c1c(NC(=O)c2ccnc(-c3c(F)cccc3OC)n2)ccc2c1cnn2C [Example 15, 2-(2-Fluoro-6-methoxyphenyl)-N-(1-methyl-4-(2-((methylamino)methyl)phenyl)-1H-indazol-5-yl)pyrimidine-4-carboxamide]

SMILES	Ki
COc1cccc(F)c1-c1nccc(C(=O)Nc2ccc3c(cnn3C)c2N(C)C2CCN(C)CC2)n1 [Example 2, 2-(2-Fluoro-6-methoxyphenyl)-N-(1-methyl-4-(methyl(1-methylpiperidin-4-yl)amino)-1H-indazol-5-yl)pyrimidine-4-carboxamide]	≤ 100 nM
